According to BindingDB's records for doi:10.1016/j.bmcl.2010.01.039 (Institute of Science and Technology, 2010):

Target: T1, Receptor-type tyrosine-protein kinase FLT3 (Homo sapiens, UniProt P36888)
T1 sequence (P36888 whole entry): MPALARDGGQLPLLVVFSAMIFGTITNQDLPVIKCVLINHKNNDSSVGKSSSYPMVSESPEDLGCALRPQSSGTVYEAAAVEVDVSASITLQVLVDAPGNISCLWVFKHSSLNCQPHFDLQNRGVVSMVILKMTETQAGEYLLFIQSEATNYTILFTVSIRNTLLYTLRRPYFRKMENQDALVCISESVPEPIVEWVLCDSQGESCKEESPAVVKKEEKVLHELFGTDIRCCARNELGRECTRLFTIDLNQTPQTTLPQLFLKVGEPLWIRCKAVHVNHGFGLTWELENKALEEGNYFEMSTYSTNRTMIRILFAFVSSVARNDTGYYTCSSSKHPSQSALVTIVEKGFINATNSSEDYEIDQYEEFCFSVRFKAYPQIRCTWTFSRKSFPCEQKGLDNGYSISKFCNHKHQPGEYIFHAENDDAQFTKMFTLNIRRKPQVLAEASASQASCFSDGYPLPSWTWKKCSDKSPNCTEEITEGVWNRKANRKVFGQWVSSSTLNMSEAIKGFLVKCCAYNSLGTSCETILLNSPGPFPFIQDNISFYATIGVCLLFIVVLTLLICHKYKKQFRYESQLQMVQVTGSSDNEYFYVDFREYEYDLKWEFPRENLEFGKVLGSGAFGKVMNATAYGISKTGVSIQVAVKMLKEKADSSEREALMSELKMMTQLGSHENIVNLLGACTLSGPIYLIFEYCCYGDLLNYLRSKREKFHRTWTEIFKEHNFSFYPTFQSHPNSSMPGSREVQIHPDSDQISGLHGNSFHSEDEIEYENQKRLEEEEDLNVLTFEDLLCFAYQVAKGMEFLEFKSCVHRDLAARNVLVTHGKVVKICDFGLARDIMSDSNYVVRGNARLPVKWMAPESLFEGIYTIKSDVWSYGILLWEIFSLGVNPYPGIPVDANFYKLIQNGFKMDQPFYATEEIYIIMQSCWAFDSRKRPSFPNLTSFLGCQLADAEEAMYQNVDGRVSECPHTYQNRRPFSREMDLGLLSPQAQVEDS
Assay: Inhibition of FLT3 by HTRF assay

Row | SMILES | IC50 [µM]
1 | Cc1cc(Cl)cc2c1NC(=O)C2c1[nH]c2ccccc2c1N=O (centres undefined) [5'-Chloro-7'-methyl-1H,1'H-[2,3']biindolylidene-3,2'-dione 3-oxime] | > 10
2 | O=Nc1c(C2C(=O)Nc3ccc(OC(F)(F)F)cc32)[nH]c2ccccc12 (centres undefined) [5'-Trifluoromethoxy-1H,1'H-[2,3']biindolylidene-3,2'-dione 3-oxime] | > 10
3 | O=C1N=c2ccc([N+](=O)[O-])cc2=C1c1[nH]c2ccccc2c1O [(Z)-5'-Nitro-1H,1'H-[2,3']biindolylidene-3,2'-dione] | > 10
4 | O=Nc1c(C2C(=O)Nc3ccc([N+](=O)[O-])cc32)[nH]c2ccc(Br)cc12 (centres undefined) [(Z)-5-Bromo-5'-nitro-1H,1'H-[2,3']biindolylidene-3,2'-dione 3-oxime] | > 10
